Biological target: T1, human calcium receptor (Homo sapiens, UniProt P41180)
T1 construct: expressed in transfected cells; host or cells: cell strain derived from rat adrenal, co-transformed with luciferase cDNA
T1 sequence (P41180 20-1078): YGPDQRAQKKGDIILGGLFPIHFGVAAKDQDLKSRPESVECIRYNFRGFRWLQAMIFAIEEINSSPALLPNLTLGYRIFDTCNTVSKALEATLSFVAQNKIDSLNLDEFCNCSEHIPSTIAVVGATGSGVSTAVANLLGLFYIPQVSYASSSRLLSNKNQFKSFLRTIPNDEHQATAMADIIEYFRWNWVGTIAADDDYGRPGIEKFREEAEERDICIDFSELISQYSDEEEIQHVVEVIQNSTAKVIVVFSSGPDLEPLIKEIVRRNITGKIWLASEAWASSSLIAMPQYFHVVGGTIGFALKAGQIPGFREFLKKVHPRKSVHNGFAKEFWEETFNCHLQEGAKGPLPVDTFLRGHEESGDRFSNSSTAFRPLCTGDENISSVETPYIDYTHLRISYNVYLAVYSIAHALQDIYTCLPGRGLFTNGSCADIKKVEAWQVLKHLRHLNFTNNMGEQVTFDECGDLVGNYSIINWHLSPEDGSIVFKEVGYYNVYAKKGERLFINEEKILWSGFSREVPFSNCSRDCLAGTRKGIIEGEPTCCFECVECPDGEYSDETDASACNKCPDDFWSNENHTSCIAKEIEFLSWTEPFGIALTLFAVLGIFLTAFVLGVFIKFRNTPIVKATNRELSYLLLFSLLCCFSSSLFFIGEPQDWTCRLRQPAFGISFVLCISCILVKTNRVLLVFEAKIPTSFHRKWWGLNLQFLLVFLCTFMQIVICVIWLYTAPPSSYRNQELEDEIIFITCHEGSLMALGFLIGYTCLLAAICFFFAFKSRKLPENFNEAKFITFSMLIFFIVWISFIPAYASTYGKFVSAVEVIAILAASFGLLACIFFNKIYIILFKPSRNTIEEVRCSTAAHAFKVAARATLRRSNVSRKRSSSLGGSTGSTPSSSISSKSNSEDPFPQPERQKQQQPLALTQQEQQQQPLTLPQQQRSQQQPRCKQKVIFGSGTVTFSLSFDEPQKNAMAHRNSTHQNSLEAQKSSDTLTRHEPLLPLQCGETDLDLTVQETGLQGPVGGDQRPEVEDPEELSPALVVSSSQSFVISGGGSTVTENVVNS
Test: Evaluation of antagonistic action on calcium receptor using reporter gene (luciferase)
Type: cell-based
Details: transformed rat adrenal derived cells, 5 mM calcium chloride, culture 4 hrs, luciferase activity; read-out: Reporter gene assay (IC50, concentration showing 50% inhibitory rate)
Description: Evaluation of Antagonistic Action on Calcium Receptor Using Reporter Gene
Luciferase cDNA and human calcium receptor cDNA were introduced into a cell strain derived from rat adrenal to transform the cells, and the transformed cells were cultured in a medium (80 μl, F12 medium containing 0.5% dialyzed horse serum and 0.25% dialyzed bovine fetal serum). A dimethyl sulfoxide solution containing a test compound at 0.1-10000 μM was diluted 100-fold with the medium and added to the test compound group at 10 μl per well (dimethyl sulfoxide final concentration 0.1%). In the same manner as in test compound group, dimethyl sulfoxide 100-fold diluted with medium was added to a control group and a blank group. Then, 50 mM calcium chloride-containing medium was added to every well except the blank group at 10 μl per well (final concentration 5 mM). A medium containing 50 mM calcium chloride was added to the control group at 10 μl per well, such that the final calcium concentration of the medium became 5 mM. A medium alone was added to the blank group. After culture for 4 hrs, luciferase substrate was added and the luciferase activity was measured with a photoluminometer. The inhibitory rate (%) was calculated from the obtained measured values according to the following formula.
Based on the results, the concentration (IC50) showing 50% inhibitory rate was determined. The results are shown in the aforementioned Tables 1 to 60.

IC50 | SMILES
0.002 µM | Cc1ccc(CC(C)(C)NC[C@@H](O)CO[C@H](C)c2ccccc2-c2ccc(C(=O)O)c(O)c2)cc1F [Example 1-50, 2′-[1-[(2R)-3-[[1-(3-fluoro-4-methylphenyl)-2-methylpropan-2-yl]amino]-2-hydroxypropoxy]ethyl]-3-hydroxybiphenyl-4-carboxylic acid]
0.004 µM | Cc1ccc(CC(C)(C)NC[C@@H](O)CO[C@H](C)c2ccccc2-c2ccc(C(=O)O)c(Cc3ccccc3)c2)cc1F [Example 1-79, 3-benzyl-2′-[1-[(2R)-3-[[1-(3-fluoro-4-methylphenyl)-2-methylpropan-2-yl]amino]-2-hydroxypropoxy]ethyl]biphenyl-4-carboxylic acid]
0.011 µM | C[C@@H](OC[C@H](O)CNC(C)(C)Cc1ccc(Cl)c(F)c1)c1ccccc1Oc1ccc(C(=O)O)cc1 [Example 2-35, 4-[2-[1-[(2R)-3-[[1-(4-chloro-3-fluorophenyl)-2-methylpropan-2-yl]amino]-2-hydroxypropoxy]ethyl]phenoxy]benzoic acid]
0.271 µM | Cc1cc(F)c(CC(C)(C)NC[C@@H](O)CO[C@H](C)c2ccccc2-c2ccc(C(=O)O)c(C)c2)cc1Cl [Example 1-90, 2′-[1-[(2R)-3-[[1-(5-chloro-2-fluoro-4-methylphenyl)-2-methylpropan-2-yl]amino]-2-hydroxypropoxy]ethyl]-3-methylbiphenyl-4-carboxylic acid]
0.015 µM | Cc1cc(C(=O)O)cc(-c2ccccc2[C@@H](C)OC[C@H](O)CNC(C)(C)Cc2ccc(C)c(F)c2)c1 [Example 1-17, 2′-[1-[(2R)-3-[[1-(3-fluoro-4-methylphenyl)-2-methylpropan-2-yl]amino]-2-hydroxypropoxy]ethyl]-3-methylbiphenyl-5-carboxylic acid]
0.065 µM | Cc1ccc(CC(C)(C)NC[C@@H](O)CO[C@H](C)c2ccccc2-c2ccc(CO)c(C(=O)O)c2)cc1F [Example 1-47, 2′-[1-[(2R)-3-[[1-(3-fluoro-4-methylphenyl)-2-methylpropan-2-yl]amino]-2-hydroxypropoxy]ethyl]-4-(hydroxymethyl)biphenyl-3-carboxylic acid]
0.017 µM | C[C@@H](OC[C@H](O)CNC(C)(C)Cc1ccc2ccccc2c1)c1ccccc1OCc1ccc(C(=O)O)cc1 [Example 2-22, 4-[[2-[1-[(2R)-3-[[1-(naphthalen-2-yl)-2-methylpropan-2-yl]amino]-2-hydroxypropoxy]ethyl]phenoxy]methyl]benzoic acid]
0.003 µM | C[C@@H](OC[C@H](O)CNC(C)(C)Cc1ccc2ccccc2c1)c1ccccc1-c1ccc(C(=O)O)c(Cl)c1 [Example 1-68, 3-chloro-2′-[1-[(2R)-3-[[1-(naphthalen-2-yl)-2-methylpropan-2-yl]amino]-2-hydroxypropoxy]ethyl]biphenyl-4-carboxylic acid]
0.005 µM | C[C@@H](OC[C@H](O)CNC(C)(C)Cc1ccc(Cl)c(Cl)c1)c1ccccc1-c1ccc(C(=O)O)c(C(F)(F)F)c1 [Example 1-31, 2′-[1-[(2R)-3-[[1-(3,4-dichlorophenyl)-2-methylpropan-2-yl]amino]-2-hydroxypropoxy]ethyl]-3-(trifluoromethyl)biphenyl-4-carboxylic acid]
0.071 µM | COC(=O)c1ccc(Oc2ccccc2C(C)OC[C@H](O)CNC(C)(C)Cc2ccc3ccccc3c2)cc1 (stereo partly drawn) [Example 2-3, methyl 4-[2-[1-[(2R)-3-[[1-(naphthalen-2-yl)-2-methylpropan-2-yl]amino]-2-hydroxypropoxy]ethyl]phenoxy]benzoate]
0.011 µM | Cc1ccc(CC(C)(C)NC[C@@H](O)CO[C@H](C)c2ccccc2Oc2ccc(C(=O)O)c([N+](=O)[O-])c2)cc1F [Example 2-29, 4-[2-[1-[(2R)-3-[[1-(3-fluoro-4-methylphenyl)-2-methylpropan-2-yl]amino]-2-hydroxypropoxy]ethyl]phenoxy]-2-nitrobenzoic acid]
0.004 µM | Cc1cc(-c2ccccc2[C@@H](C)OC[C@H](O)CNC(C)(C)Cc2ccc(Cl)c(Cl)c2)ccc1C(=O)O [Example 1-61, 2′-[1-[(2R)-3-[[1-(3,4-dichlorophenyl)-2-methylpropan-2-yl]amino]-2-hydroxypropoxy]ethyl]-3-methylbiphenyl-4-carboxylic acid]
0.03 µM | CC(OC[C@H](O)CNC(C)(C)Cc1ccc2ccccc2c1)c1ccccc1Cc1ccc(C(=O)O)cc1 (some centres unmarked) [2-14′]
0.017 µM | Cc1ccc(CC(C)(C)NC[C@@H](O)COC(C)c2ccccc2Oc2ccc(C(=O)O)cc2)cc1F (stereo partly drawn) [Example 2-7, 4-[2-[1-[(2R)-3-[[1-(3-fluoro-4-methylphenyl)-2-methylpropan-2-yl]amino]-2-hydroxypropoxy]ethyl]phenoxy]benzoic acid]
0.028 µM | Cc1cc(-c2ccccc2[C@@H](C)OC[C@H](O)CNC(C)(C)Cc2ccc(C)c(C(F)(F)F)c2)ccc1C(=O)O [Example 1-104, 2′-[1-[(2R)-3-[[1-(3-trifluoromethyl-4-methylphenyl)-2-methylpropan-2-yl]amino]-2-hydroxypropoxy]ethyl]-3-methylbiphenyl-4-carboxylic acid]
0.019 µM | C[C@@H](OC[C@H](O)CNC(C)(C)Cc1ccc2ccccc2c1)c1ccccc1-c1ccc(F)c(C(=O)O)c1 [Example 1-56, 4-fluoro-2′-[1-[(2R)-3-[[1-(naphthalen-2-yl)-2-methylpropan-2-yl]amino]-2-hydroxypropoxy]ethyl]biphenyl-3-carboxylic acid]
0.014 µM | Cc1cc(-c2ccccc2[C@@H](C)OC[C@H](O)CNC(C)(C)Cc2ccc(Cl)c(F)c2)ccc1C(=O)O [Example 1-88]
0.005 µM | Cc1cc(-c2ccccc2[C@H](OC[C@H](O)CNC(C)(C)Cc2ccc(Cl)c(F)c2)C2CC2)ccc1C(=O)O [Example 1-19, 2′-[(cyclopropyl)[(2R)-3-[[1-(4-chloro-3-fluorophenyl)-2-methylpropan-2-yl]amino]-2-hydroxypropoxy]methyl]-3-methylbiphenyl-4-carboxylic acid]
0.022 µM | Cc1cc(C(=O)O)cc(C)c1Oc1ccccc1C(C)OC[C@H](O)CNC(C)(C)Cc1ccc(Cl)cc1F (stereo partly drawn) [Example 2-13, 4-[2-[1-[(2R)-3-[[1-(4-chloro-2-fluorophenyl)-2-methylpropan-2-yl]amino]-2-hydroxypropoxy]ethyl]phenoxy]-3,5-dimethylbenzoic acid]
0.005 µM | Cc1ccc(CC(C)(C)NC[C@@H](O)COC(C)c2ccccc2Oc2c(C)cc(C(=O)O)cc2C)cc1F (stereo partly drawn) [Example 2-12, 4-[2-[1-[(2R)-3-[[1-(3-fluoro-4-methylphenyl)-2-methylpropan-2-yl]amino]-2-hydroxypropoxy]ethyl]phenoxy]-3,5-dimethylbenzoic acid]
0.026 µM | Cc1cc(-c2ccccc2[C@@H](C)OC[C@H](O)CNC(C)(C)Cc2ccc(Cl)cc2F)ccc1C(=O)O [Example 1-110]
0.013 µM | Cc1ccc(CC(C)(C)NC[C@@H](O)CO[C@H](C)c2ccccc2-c2ccc(C(=O)O)c(C(C)(C)C)c2)cc1F [Example 1-98, 2′-[1-[(2R)-3-[[1-(3-fluoro-4-methylphenyl)-2-methylpropan-2-yl]amino]-2-hydroxypropoxy]ethyl]-3-t-butylbiphenyl-4-carboxylic acid]
0.024 µM | Cc1ccc(CC(C)(C)NC[C@@H](O)CO[C@H](C)c2ccccc2OCc2ccc(C(=O)O)cc2C)cc1F [Example 2-26, 4-[[2-[1-[(2R)-3-[[1-(3-fluoro-4-methylphenyl)-2-methylpropan-2-yl]amino]-2-hydroxypropoxy]ethyl]phenoxy]methyl]-3-methylbenzoic acid]

Reference: patent publication US7304174B2, “CaSR antagonist” (Japan Tobacco Inc., priority 2003, dated 2007)
